Data from patent US8658591B2, “Multi-LEU peptides and analogues thereof as selective PACE4 inhibitors and effective antiproliferative agents” (priority 2008, dated 2014).

Columns and labels:
Type in all cases: biochemical
PC7 = target: T1, PC7 (Homo sapiens, UniProt Q16549); assay: Enzyme inhibition assay, fluorogenic substrate, PC7
T1 sequence (Q16549 142-785): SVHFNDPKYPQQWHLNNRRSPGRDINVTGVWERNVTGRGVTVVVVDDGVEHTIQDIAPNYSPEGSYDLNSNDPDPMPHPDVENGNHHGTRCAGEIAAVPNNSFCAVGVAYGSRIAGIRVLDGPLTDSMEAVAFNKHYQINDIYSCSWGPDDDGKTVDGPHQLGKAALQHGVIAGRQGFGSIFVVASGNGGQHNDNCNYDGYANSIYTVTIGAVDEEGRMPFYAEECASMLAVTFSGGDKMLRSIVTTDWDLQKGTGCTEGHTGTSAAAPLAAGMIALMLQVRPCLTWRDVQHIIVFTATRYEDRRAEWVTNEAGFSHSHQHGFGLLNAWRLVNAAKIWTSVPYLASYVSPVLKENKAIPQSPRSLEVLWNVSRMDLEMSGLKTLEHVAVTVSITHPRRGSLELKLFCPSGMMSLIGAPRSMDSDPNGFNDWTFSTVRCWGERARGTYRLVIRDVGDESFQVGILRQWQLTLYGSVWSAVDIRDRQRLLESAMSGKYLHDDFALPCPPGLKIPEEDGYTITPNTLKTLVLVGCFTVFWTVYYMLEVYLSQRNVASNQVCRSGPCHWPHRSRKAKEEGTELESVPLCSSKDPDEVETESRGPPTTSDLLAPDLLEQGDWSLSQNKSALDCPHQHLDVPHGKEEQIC
Description: (§1) Enzyme inhibition assays for furin (FIG. 5D) were performed in 100 mM Hepes pH 7.5, 1 mM CaCl2, 1 mM β-mercaptoethanol, 0.5 μg/μL BSA. Assays for PC2 (FIG. 5E) were performed in 20 mM Bis-Tris pH 5,7, 1 mM CaCl2, 0.1% Brij-30. Assays for PC1/3, PC4, PACE4, PC5/6 and PC7 (FIGS. 5F, G, A, B and C respectively) were performed in 20 mM Bis-Tis pH 6.5, 1 mM CaCl2. All assays were performed with the substrate pyroGlu-Arg-[…]-Lys-Arg-methyl-coumaryl-7-amide (SEQ ID NO: 33) (PyrRTKR-MCA (SEQ ID NO: 34)) (Bachem, CA) at 100 μM for furin, PC1/3, PC4, PACE4 and PC5/6, 200 μM for PC2 and 250 μM for PC7. Assays were carried out at 37° C. for 30-60 min and real-time fluorescence was measured with an excitation wavelength of 370 nm and an emission wavelength of 460 nm using a Gemini XS™ 96-well spectrofluorometer and SoftMaxPro4™ software (Molecular Devices, CA). Inhibitory peptides were added to the enzymes at decreasing concentrations from 100 μM to 50 nM and incubated 5 minutes prior to the addition of substrate.

PC2 = target: T2, PC2 (Homo sapiens, UniProt P16519); assay: Enzyme inhibition assay, fluorogenic substrate, PC2
T2 sequence (P16519 110-638): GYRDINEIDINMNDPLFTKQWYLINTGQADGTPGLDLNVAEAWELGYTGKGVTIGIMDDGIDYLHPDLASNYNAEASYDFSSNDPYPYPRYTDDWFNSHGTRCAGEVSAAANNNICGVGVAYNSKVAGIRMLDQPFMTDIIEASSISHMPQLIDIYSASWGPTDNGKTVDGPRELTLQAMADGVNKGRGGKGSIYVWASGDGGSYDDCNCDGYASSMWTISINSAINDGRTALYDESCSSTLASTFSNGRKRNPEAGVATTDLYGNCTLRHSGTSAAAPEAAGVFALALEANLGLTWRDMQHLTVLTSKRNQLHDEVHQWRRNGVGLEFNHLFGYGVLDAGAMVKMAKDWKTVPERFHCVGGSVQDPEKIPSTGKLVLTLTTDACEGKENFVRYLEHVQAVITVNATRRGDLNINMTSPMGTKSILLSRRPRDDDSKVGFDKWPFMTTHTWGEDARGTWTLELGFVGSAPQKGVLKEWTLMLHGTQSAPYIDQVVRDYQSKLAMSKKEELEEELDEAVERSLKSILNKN
Description: as §1

PC1/3 = target: T3, PC1/3 (Homo sapiens, UniProt P29120); assay: Enzyme inhibition assay, fluorogenic substrate, PC1/3
T3 sequence (P29120 111-753): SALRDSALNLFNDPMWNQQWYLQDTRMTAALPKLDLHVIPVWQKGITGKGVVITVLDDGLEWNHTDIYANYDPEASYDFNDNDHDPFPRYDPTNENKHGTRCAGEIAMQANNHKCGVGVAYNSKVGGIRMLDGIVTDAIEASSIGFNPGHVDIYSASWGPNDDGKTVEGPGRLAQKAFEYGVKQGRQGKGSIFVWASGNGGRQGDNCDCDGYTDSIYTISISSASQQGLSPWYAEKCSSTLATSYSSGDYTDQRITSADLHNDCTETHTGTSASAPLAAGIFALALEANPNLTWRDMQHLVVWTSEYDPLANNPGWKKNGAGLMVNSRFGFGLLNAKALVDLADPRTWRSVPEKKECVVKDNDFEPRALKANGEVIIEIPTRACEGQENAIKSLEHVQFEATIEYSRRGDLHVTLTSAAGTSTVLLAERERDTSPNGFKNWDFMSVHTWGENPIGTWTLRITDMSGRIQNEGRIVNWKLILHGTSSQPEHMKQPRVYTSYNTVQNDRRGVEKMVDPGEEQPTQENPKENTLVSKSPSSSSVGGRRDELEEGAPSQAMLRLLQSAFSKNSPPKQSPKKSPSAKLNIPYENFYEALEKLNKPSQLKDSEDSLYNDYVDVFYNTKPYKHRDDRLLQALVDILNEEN
Description: as §1

inhibition potency on PC7, in words (PC7): poor micromolar inhibitor
inhibition potency on PC2, in words (PC2): poor micromolar inhibitor
inhibition potency on PC1/3, in words (PC1/3): poor micromolar inhibitor
Substance: RVKR [RVKR—NH2, RVKR-NH2]
